Consider 24 compounds from patent US20210188843A1, “QUINOLINE COMPOUNDS AND THEIR PREPARATION AND USE AS ANTIMALARIAL AGENTS” (The United States of America,as represented by the …, priority 2018, published 2021).

Converted amounts (≈) assume the structure as drawn. Where two headings read alike, the source gives them in different places.

One data set in a line: PAMPA permeability. The data set is classed as in vitro ADME.
Data set [1] concerns Asexual parasites of P. falciparum strain 3D7. Kind of data set: In vitro drug activity on asexual parasites (SYBR Green assay). The data set is classed as cell-based. The conditions noted are these: Plasmodium falciparum, P. falciparum 3D7 asexual stage, 72 h, read-out: Asexual EC50. Put shortly: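 3D7 asexual cultures at 0.5% parasitemia and 2% hematocrit were exposed to drug (DMSO <0.5%) for 72 h under standard culture conditions, in duplicate with no-drug and RBC-only controls. After freeze-thaw lysis, SYBR Green I lysis buffer was added for 30 min at room temperature; fluorescence was read at 490 nm excitation/520 nm emission.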

Data set [2] can be described thus: Microsomal stability (rat). The format is in vitro ADME. To be noted: rat microsomes.
A further data set in a line: Solubility pH 7.4. The data set is classed as physicochemical. The conditions noted are these: aqueous buffer.
The mark [3] stands for this setting: Table 1, read-out: Microsomal Stability (rat) T1/2.
Setting [4] is: Table 3, read-out: Microsomal Stability (rat) T1/2.
The mark [5] stands for this setting: Table 2, read-out: Microsomal Stability (rat) T1/2.

By Papp is commonly meant a coefficient for how fast a substance crosses the barrier. What is called EC50 is the concentration that produces a half-maximal response. By solubility is commonly meant the dissolved amount per volume that the medium holds. Low readings indicate little dissolved substance, high ones much dissolved substance. As to `Cc1ccc(C#N)cc1-n1c(=N)n(C)c2cnc3ccc(-c4ccc(OCCCN(C)C)nc4)cc3c21` [Compound 106, 3-(8-(6-(3-(dimethylamino)propoxy)pyridin-3-yl)-2-imino-3-methyl-2,3-dihydro-1H-imidazo[4,5-c]quinolin-1-yl)-4-methylbenzonitrile], the Papp in “PAMPA permeability” (Table 1) was 1.2 ×10⁻⁶ cm/s. In data set [1] (Table 1), the EC50 was 140 nM. Besides, in data set [2] (setting [3]), the half-life was more than 30 min. The compound further yielded a solubility in “Solubility pH 7.4” (Table 1) of more than 49 µg/mL.
For `Cc1ccc(C#N)cc1-n1c(=N)n(C)c2cnc3ccc(-c4cccc(Cl)c4)cc3c21` [Compound 33, 3-(8-(3-chlorophenyl)-2-imino-3-methyl-2,3-dihydro-1H-imidazo[4,5-c]quinolin-1-yl)-4-methylbenzonitrile] the same measures were 1820 ×10⁻⁶ cm/s, 297 nM, more than 30 min and 14.5 µg/mL (≈ 34.2 µM).
Take `CC(=O)N1CCN(c2ncc(-n3c(=N)n(C)c4cnc5ccc(-c6ccc(Cl)cc6)cc5c43)cn2)CC1`: the Papp in “PAMPA permeability” (Table 3) worked out at 292 ×10⁻⁶ cm/s. Besides, in data set [1] (Table 3), the half-maximal effective concentration (EC50) was 391 nM. Moreover, in data set [2] (setting [4]), the half-life was more than 30 min. This compound displayed a solubility in “Solubility pH 7.4” (Table 3) of 22.9 µg/mL (≈ 44.6 µM).
For `Cn1c(=N)n(-c2cccc(C#N)c2)c2c3cc(-c4ccc(Cl)cc4)ccc3ncc21` [Compound 11, 3-(8-(4-chlorophenyl)-2-imino-3-methyl-2,3-dihydro-1H-imidazo[4,5-c]quinolin-1-yl)benzonitrile], the Papp in “PAMPA permeability” (Table 1) was 1000 ×10⁻⁶ cm/s. Moreover, the EC50 in data set [1] (Table 1) turned out to be 48.2 nM. Besides, the half-life in data set [2] (setting [3]) was more than 30 min. For the same compound, in “Solubility pH 7.4” (Table 1), the solubility was 3.1 µg/mL (≈ 7.56 µM).
`CCC(=O)/N=c1/ccc2cnc3ccc(-c4ccc(Cl)cc4)cc3c2n1-c1ccc(C(=O)NC2CC2)cc1`: the Papp in the data set “PAMPA permeability” (Table 2) was 445 ×10⁻⁶ cm/s. The EC50 in data set [1] (Table 2) worked out at 47.5 nM. For the same compound, the half-life in data set [2] (setting [5]) amounted to 4.8 min. For the same compound, the solubility in “Solubility pH 7.4” (Table 2) is less than 1 µg/mL.
In the case of `Cc1nc(N2CCOCC2)c(C#N)cc1-n1c(=N)n(C)c2cnc3ccc(-c4ccc(Cl)cc4)cc3c21` [Compound 21, 5-(8-(4-chlorophenyl)-2-imino-3-methyl-2,3-dihydro-H-imidazo[4,5-c]quinolin-1-yl)-6-methyl-2-morpholinonicotinonitrile], the Papp in “PAMPA permeability” (Table 1) worked out at 1560 ×10⁻⁶ cm/s. The EC50 in data set [1] (Table 1) was 317 nM. In addition, in data set [2] (setting [3]), the half-life is more than 30 min. The solubility in “Solubility pH 7.4” (Table 1) worked out at 4.4 µg/mL (≈ 8.63 µM).
For `Cc1nc(N2CCN(C)CC2)c(C#N)cc1-n1c(=N)n(C)c2cnc3ccc(-c4cccc(F)c4)cc3c21` [Compound 143, 5-(8-(3-fluorophenyl)-2-imino-3-methyl-2,3-dihydro-1H-imidazo[4,5-c]quinolin-1-yl)-6-methyl-2-(4-methylpiperazin-1-yl)nicotinonitrile] the same measures were 776 ×10⁻⁶ cm/s, 374 nM, more than 30 min and more than 50 µg/mL.
Consider `Cn1c(=N)n(C2CC(N3CCOCC3)C2)c2c3cc(-c4ccc(Cl)cc4)ccc3ncc21` (stereo not drawn) [Compound 58, 8-(4-chlorophenyl)-3-methyl-1-(3-morpholinocyclobutyl)-1,3-dihydro-2H-imidazo[4,5-c]quinolin-2-imine], for which the Papp in the data set “PAMPA permeability” (Table 1) came out at 816 ×10⁻⁶ cm/s. Moreover, the EC50 in data set [1] (Table 1) was 2670 nM. For the same compound, the half-life in data set [2] (setting [3]) was more than 30 min. Also, the solubility in “Solubility pH 7.4” (Table 1) was more than 44 µg/mL.
For `COc1ccc(-c2ccc3ncc4c(c3c2)n(-c2cc(C#N)ccc2C)c(=N)n4C)cc1OC` [Compound 41, 3-(8-(3,4-dimethoxyphenyl)-2-imino-3-methyl-2,3-dihydro-1H-imidazo[4,5-c]quinolin-1-yl)-4-methylbenzonitrile], in that order: 988 ×10⁻⁶ cm/s, 46.2 nM, more than 30 min and more than 44 µg/mL.
`Cn1c(=N)n(-c2cncnc2)c2c3cc(-c4ccc(C(F)(F)F)nc4)ccc3ncc21` showed a Papp in “PAMPA permeability” (Table 3) of 541 ×10⁻⁶ cm/s. For the same compound, the EC50 in data set [1] (Table 3) amounted to 560 nM. For the same compound, the half-life in data set [2] (setting [4]) was more than 30 min. The compound also returned a solubility in the data set “Solubility pH 7.4” (Table 3) of 31 µg/mL (≈ 73.6 µM).
In turn, `Cc1ccc(C#N)cc1-n1c(=N)n(C)c2cnc3ccc(-c4ccc(F)cc4)cc3c21` [Compound 12, 3-(8-(4-fluorophenyl)-2-imino-3-methyl-2,3-dihydro-1H-imidazo[4,5-c]quinolin-1-yl)-4-methylbenzonitrile] returned a Papp in “PAMPA permeability” (Table 1) of 1030 ×10⁻⁶ cm/s. In addition, the EC50 in data set [1] (Table 1) came to 64.4 nM. The half-life in data set [2] (setting [3]) is more than 30 min. Further, in the data set “Solubility pH 7.4” (Table 1), the solubility is 3.9 µg/mL (≈ 9.57 µM).
For `Cc1ccc(C(F)(F)F)cc1-n1c(=N)n(C)c2cnc3ccc(-c4ccc(Cl)cc4)cc3c21` [Compound 27, 8-(4-chlorophenyl)-3-methyl-1-(2-methyl-5-(trifluoromethyl)phenyl)-1,3-dihydro-2H-imidazo[4,5-c]quinolin-2-imine], in that order: 1610 ×10⁻⁶ cm/s, 138 nM, more than 30 min and less than 1 µg/mL.
For `Cn1c(=N)n(-c2cccc(N3CCNCC3)c2)c2c3cc(-c4ccc(Cl)cc4)ccc3ncc21` [Compound 76, 8-(4-chlorophenyl)-3-methyl-1-(3-(piperazin-1-yl)phenyl)-1,3-dihydro-2H-imidazo[4,5-c]quinolin-2-imine] the same measures were 28.3 ×10⁻⁶ cm/s, 802 nM, more than 30 min and more than 46 µg/mL.
In “PAMPA permeability” (Table 3), `COc1ccc(-c2ccc3ncc4c(c3c2)n(-c2cncnc2)c(=N)n4C)cn1` gave a Papp of 684 ×10⁻⁶ cm/s. In addition, in data set [1] (Table 3), the EC50 came to 1050 nM. Besides, the half-life in data set [2] (setting [4]) is more than 30 min. Moreover, in “Solubility pH 7.4” (Table 3), the solubility turned out to be 34.5 µg/mL (≈ 90 µM).
In “PAMPA permeability” (Table 1), `Cc1ccc(C#N)cc1-n1c(=N)n(C)c2cnc3ccc(-c4cccc(CN(C)C)c4)cc3c21` [Compound 24, 3-(8-(3-((dimethylamino)methyl)phenyl)-2-imino-3-methyl-2,3-dihydro-1H-imidazo[4,5-c]quinolin-1-yl)-4-methylbenzonitrile] came in with a Papp of 405 ×10⁻⁶ cm/s. In data set [1] (Table 1), the EC50 was found to be 980 nM. Further, in data set [2] (setting [3]), the half-life was more than 30 min. For the same compound, the solubility in “Solubility pH 7.4” (Table 1) was more than 44 µg/mL.
`C/N=c1\ccc2cnc3ccc(-c4ccc(Cl)cc4)cc3c2n1-c1ccc(C(=O)NC2CC2)cc1`: in the data set “PAMPA permeability” (Table 2), the Papp is 130 ×10⁻⁶ cm/s. For the same compound, in data set [1] (Table 2), the EC50 was 1210 nM. Moreover, the half-life in data set [2] (setting [5]) was determined as 17.4 min. Besides, the solubility in the data set “Solubility pH 7.4” (Table 2) was less than 1 µg/mL.
In the case of `Cc1ccc(C#N)cc1-n1c(=N)n(C)c2cnc3ccc(-c4ccc(Cl)c(C#N)c4)cc3c21` [Compound 30, 2-chloro-5-(1-(5-cyano-2-methylphenyl)-2-imino-3-methyl-2,3-dihydro-1H-imidazo[4,5-c]quinolin-8-yl)benzonitrile], in the data set “PAMPA permeability” (Table 1), the Papp is 1210 ×10⁻⁶ cm/s. The EC50 in data set [1] (Table 1) came to 60.3 nM. The half-life in data set [2] (setting [3]) was more than 30 min. The compound further showed a solubility in “Solubility pH 7.4” (Table 1) of 7.3 µg/mL (≈ 16.3 µM).
For `COC(=O)/N=c1\n(C)c2cnc3ccc(-c4ccc(Cl)cc4)cc3c2n1-c1cc(C#N)ccc1C` [Compound 87, methyl (E)-(8-(4-chlorophenyl)-1-(5-cyano-2-methylphenyl)-3-methyl-1,3-dihydro-2H-imidazo[4,5-c]quinolin-2-ylidene)carbamate] the same measures were 95.6 ×10⁻⁶ cm/s, 57.5 nM, more than 30 min and less than 1 µg/mL.
`COc1ccc(-c2ccc3ncc4c(c3c2)n(-c2cncnc2)c(=N)n4C)cc1OC`: the Papp in “PAMPA permeability” (Table 3) is 510 ×10⁻⁶ cm/s. Further, the EC50 in data set [1] (Table 3) came out at 17 nM. In data set [2] (setting [4]), the half-life was more than 30 min. This compound registered a solubility in the data set “Solubility pH 7.4” (Table 3) of more than 61 µg/mL.
In the case of `Cc1ccc(C#N)cc1-n1/c(=N/C#N)n(C)c2cnc3ccc(-c4ccc(N)nc4)cc3c21` [Compound 4, (E)-N-(8-(6-aminopyridin-3-yl)-1-(5-cyano-2-methylphenyl)-3-methyl-1,3-dihydro-2H-imidazo[4,5-c]quinolin-2-ylidene)cyanamide], the Papp in “PAMPA permeability” (Table 1) was 34.1 ×10⁻⁶ cm/s. Moreover, the EC50 in data set [1] (Table 1) was found to be 11.9 nM. In addition, the half-life in data set [2] (setting [3]) is more than 30 min. The solubility in “Solubility pH 7.4” (Table 1) is 3.7 µg/mL (≈ 8.6 µM).
For `CSc1ccc(C#N)cc1-n1/c(=N/C#N)n(C)c2cnc3ccc(-c4ccc(Cl)cc4)cc3c21` [Compound 18, (E)-N-(8-(4-chlorophenyl)-1-(5-cyano-2-(methylthio)phenyl)-3-methyl-1,3-dihydro-2H-imidazo[4,5-c]quinolin-2-ylidene)cyanamide], in that order: 247 ×10⁻⁶ cm/s, 564 nM, 16.9 min and less than 1 µg/mL.
For `Cc1cc(N2CCOCC2)c(C#N)cc1-n1c(=N)n(C)c2cnc3ccc(-c4ccc(Cl)cc4)cc3c21` [Compound 23, 5-(8-(4-chlorophenyl)-2-imino-3-methyl-2,3-dihydro-1H-imidazo[4,5-c]quinolin-1-yl)-4-methyl-2-morpholinobenzonitrile] the same measures were 340 ×10⁻⁶ cm/s, 63.9 nM, more than 30 min and less than 1 µg/mL.
For `Cn1c(=N)n(-c2cccc(O)c2)c2c3cc(-c4ccc(Cl)cc4)ccc3ncc21` [Compound 79, 3-(8-(4-chlorophenyl)-2-imino-3-methyl-2,3-dihydro-1H-imidazo[4,5-c]quinolin-1-yl)phenol], in that order: 42 ×10⁻⁶ cm/s, 1420 nM, more than 30 min and 9.7 µg/mL (≈ 24.2 µM).
In turn, `Cc1ccc(-c2ccc3ncc4c(c3c2)n(-c2cncnc2)c(=N)n4C)cc1` displayed a Papp in the data set “PAMPA permeability” (Table 3) of 32.3 ×10⁻⁶ cm/s. Moreover, the EC50 in data set [1] (Table 3) was found to be 230 nM. Moreover, the half-life in data set [2] (setting [4]) was more than 30 min. The same compound registered a solubility in the data set “Solubility pH 7.4” (Table 3) of 18.5 µg/mL (≈ 50.5 µM).
